The results in this text go back to patent US20090131370A1, “Novel Nucleoside Derivatives” (METABASIS THERAPEUTICS , INC., priority 2004, published 2009).

The nature of series [1]: Conversion of Compound 31.5 to 2′-β-methyladenosine in monkey liver S9. The following applies: Monkey liver S9, 37° C., pH 7.4. It is filed as in vitro ADME. The procedure: (§1) The rate of Compound 31.5 conversion to nucleoside was evaluated in liver S9 obtained from rat, dog, monkey and human liver. […] The homogenate was centrifuged in a Sorvall RC-5B Refrigerated Superspeed Centrifuge (30 minutes at 10,000 g) and the resulting supernatant used in the assays. The other S9 preparations were purchased from 1n Vitro Technologies. […] Aliquots of the reaction mixture were quenched with 2 volumes of ice-cold acetonitrile/0.2% formic acid (pH 3.0) at appropriate time intervals, briefly vortexed, and then immediately placed on dry ice. After all time points were taken, the samples were centrifuged in an Eppendorf microfuge (14,000 rpm, 10 minutes). The supernatant fractions were analyzed for disappearance of prodrug (and appearance of 2′-β-methyladenosine) by reverse phase HPLC on an Agilent Zorbax SB-Aq column (511m, 4.6×150 mm). The loading mobile phase buffer (Buffer A) consisted of a 9:1 ratio (v/v) of 20 mM potassium phosphate, pH 6.2 and acetonitrile. […] The elution of reaction components was monitored at […]. Quantitation was by comparison to authentic standards prepared in liver S9 and processed in an identical fashion to the unknown samples. The rate of prodrug conversion was calculated from the linear portion of the reaction curves and expressed as nmoles converted per mg of S9 protein per minute of reaction time.

Series [2] in a line: Susceptibility to non-productive metabolism in vivo: 2′-β-C-methylinosine AUC in rat plasma and tissues. The following applies: male, Sprague-Dawley. Also noted: species or system male Sprague-Dawley rats. The procedure: The susceptibility of 2′-β-C-methyladenosine, and its 2′,3′-carbonate prodrugs to non-productive metabolism was evaluated in vitro and in vivo. […] Also at the pre-specified times, blood (heparinized) was collected from the vena cava and centrifuged briefly to obtain plasma. […] The supernatant was then analysis for deaminated products and other metabolites by LC-UV as described above.

Series [3] is described as follows: Conversion of Compound 31.5 to 2′-β-methyladenosine in rat liver S9. It is filed as in vitro ADME. The following applies: Rat liver S9, 37° C., pH 7.4. The procedure: as §1
A short description of series [4]: Oral bioavailability in the rat based on liver nucleotide concentrations. The following applies: male, Sprague-Dawley, in vivo. The protocol: At pre-specified times of 20 min, 1, 3, 5, 8, 16, and 24 hrs post dose, liver samples (˜1 g) were collected by freeze-clamping and homogenized in 3 volumes of ice-cold 60% acetonitrile. Following centrifugation to clarify the homogenate, aliquots of the supernatants (100 μL) were evaporated to dryness on a Savant Speed-Vac Plus (1 hr, room temperature). The resulting dried residue was reconstituted with 100 μL of mobile phase and then analyzed for nucleotides by an LC-MS/MS method as described below.
The reconstituted extracts in mobile phase A (20 mM N,N-dimethylhexylamine and 10 mM propionic acid in 20% methanol) were analyzed by LC-MS/MS (Applied Biosystems, API 4000) equipped with an Agilent 1100 binary pump and a LEAP injector. […] Where possible, the quantitative analysis of liver NMP, NDP, and NTP were calculated based on a calibration curve generated from their respective standards (0.01-30 μM).
The area under the curve (AUC) to the last measurable time point were calculated by trapezoidal summation of the liver concentration-time profile of total nucleotides and NTP. The OBAV was determined by dividing the dose-normalized AUC following oral administration by the AUC following IV dosing.

Series [5] can be described thus: Conversion of Compound 31.5 to 2′-β-methyladenosine in dog (Beagle) liver S9. It is filed as in vitro ADME. The following applies: Beagle liver S9, 37° C., pH 7.4. The protocol:
as §1

Series [6] is described as follows: Conversion of Compound 31.5 to 2′-β-methyladenosine in human liver S9. It is filed as in vitro ADME. The following applies: Human liver S9, 37° C., pH 7.4. The protocol:
as §1

Series [7] can be described thus: Susceptibility to non-productive metabolism (deamination) in vitro in rat whole blood or plasma. It is filed as in vitro ADME. The following applies: rat. The procedure:
The susceptibility of 2′-β-C-methyladenosine, and its 2′,3′-carbonate prodrugs to non-productive metabolism was evaluated in vitro and in vivo. […] Aliquots of the blood and plasma samples were removed periodically and extracted with perchloric acid and methanol, respectively, and then centrifuged. The acidic supernatants were neutralized with potassium carbonate and recentrifuged. […] Analysis (50 μL) was performed on an Agilent Zorbax SB-Aq column (4.6×150 mm) eluted with a gradient consisting of a mixture of Buffer A (20 mM potassium phosphate pH 6.2) and Buffer B (acetonitrile) (0-10 min, 0-10%; 10-20 min, 10-80%, 20-21 min, 80-0%; 21-30 min, 0-0%) and UV absorbance monitoring at 265 nm. The flow rate was 1.5 mL/min and the column temperature was set at 40° C. Concentrations of metabolite were determined from calibration curves prepared by spiking known amounts of standards to plasma and processing as before.

For another series, the system named is HCV. Description: Antiviral activity in HCV-infected human liver slice assay. It is filed as cell-based, hepatitis C virus. The following applies: HCV RNA in culture media. The protocol:
The effect of various compounds on HCV replication in human liver tissue was evaluated as described below.
Liver from a brain-dead HCV antibody-positive human patient was perfused with ice-cold Viaspan (Dupont Pharmaceutical) preservation solution and received on ice in Viaspan.
Precision-cut liver slices of ˜200-250 μm thickness and […] diameter were prepared and cultured in Waymouth's cell culture medium (Gibco, Inc.) that was supplemented with 10% fetal bovine serum and 10 mL/L Fungi-Bact at 37° C., and gassed with carbogen (95% O2, 5% CO2) at 0.75 liters/min. Tissue slices were maintained in culture for 72 h. Cell culture medium containing test compound in solution was changed on a daily basis.
At appropriate times of liver slice incubation, liver slices and medium were collected for analysis of HCV RNA (tissue and medium) and nucleotide levels (NTP). All collected media and tissue slices were maintained in liquid N2 until analysis.
Medium and tissue samples were analyzed for HCV RNA levels according to published procedures (Bonacini et. al., 1999) which utilize an automated, multicycle, polymerase chain reaction (PCR)-based technique. This assay has a lower limit of detection for HCV RNA of 100 viral copies/ml. Frozen liver slices were disrupted by using a combination of ultrasound probe sonication, Branson Sonifier 450 (Branson Ultrasonics, Danbury, Conn.) and homogenization using a Dounce conical pestle in 200 μls of 10% (v/v) perchloric acid (PCA). After a 5 min centrifugation at 2,500×g, the supernatants were neutralized using 3 M KOH/3 M KHCO3 and mixed thoroughly. The neutralized samples were centrifuged at 2,500 g for 5 min and NTP levels were determined by ion exchange phase HPLC (Hewlett Packard 1050) using a Whatman Partisil 5 SAX (5 μm, 4.6×250 mm) column. Samples (50 μL) were injected onto the column in 70% 10 mM ammonium phosphate buffer and 30% 1 M ammonium phosphate buffer, both at pH 3.5 and containing 6% ethanol. Nucleoside triphosphates were eluted from the column using a linear gradient to 80% 1 M ammonium phosphate pH 3.5/6% ethanol buffer, at a flow rate of 1.25 mL/min and detected by UV absorbance (254 nm).

`C[C@@]12OC(=O)O[C@@H]1[C@@H](CO)O[C@H]2n1cnc2c(N)ncnc21` [Compound 31.5, 2′,3′-Carbonyl-2′-C-beta-methyl-adenosine]: the “Specific activity (rate of prodrug disappearance)” value in series [1] was found to be 0.024 ± 0.003 nmol/min/mg; in series [3] it was 0.28 ± 0.03 nmol/min/mg; in series [5], 2.0 ± 0.3 nmol/min/mg; in series [6] it was 0.03 ± 0.005 nmol/min/mg. Also, the “deaminated product 2′-B-C-methylinosine in plasma, liver, heart, and muscle tissue” value in series [2] is 2′-B-C-methylinosine was detected in plasma, liver, heart, and muscle tissue. Further, the “ORAL BIOAVAILABILITY” value in series [4] is 95%. Also, the “deaminated product (2′-β-C-methylinosine) after incubation in rat whole blood in vitro” value in series [7] was 2′-β-C-methylinosine was observed. The “% decrease in viral RNA relative to untreated liver slices” value in the series with HCV (0.25 μM) worked out at 0%; in the series on HCV (2.5 μM), 93%; in the series with HCV (25 μM) it was 85%; in the series with HCV (100 μM) it was 75%.
